{
  "source": "PubChem BioAssay (NCI)",
  "test_in_all_cases": "inhibition of tumour cell growth, NCI panel, 48 h",
  "key": {"EKVX NSCLC": {"test_system": "EKVX NSCLC"}, "HCC-2998 colon": {"test_system": "HCC-2998 colon"}, "HOP-92 NSCLC": {"test_system": "HOP-92 NSCLC"}, "KM20L2 colon": {"test_system": "KM20L2 colon"}, "M14 melanoma": {"test_system": "M14 melanoma"}, "MALME-3M melanoma": {"test_system": "MALME-3M melanoma"}, "MDA-MB-231 breast": {"test_system": "MDA-MB-231 breast"}, "MDA-MB-435": {"test_system": "MDA-MB-435"}, "TK-10 renal": {"test_system": "TK-10 renal"}, "XF 498 CNS": {"test_system": "XF 498 CNS"}},
  "note": "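A five-concentration, 48-hour dose response in 96-well plates underlies each endpoint, interpolated linearly between surrounding concentrations. TGI denotes the concentration required for complete inhibition of growth.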",
  "data": [
    {"smiles": "OCC(O)C(O)C(O)C1SC(c2ccccc2)=NN1c1ccccc1", "note": "(stereo not given)", "values": [
      {"measurement": "TGI", "setting": "EKVX NSCLC", "value": "> 100", "unit": "µM"},
      {"measurement": "TGI", "setting": "HCC-2998 colon", "value": "> 100", "unit": "µM"},
      {"measurement": "TGI", "setting": "HOP-92 NSCLC", "value": 63.4, "unit": "µM"},
      {"measurement": "TGI", "setting": "KM20L2 colon", "value": "> 100", "unit": "µM"},
      {"measurement": "TGI", "setting": "M14 melanoma", "value": "> 100", "unit": "µM"},
      {"measurement": "TGI", "setting": "MALME-3M melanoma", "value": "> 100", "unit": "µM"},
      {"measurement": "TGI", "setting": "MDA-MB-231 breast", "value": "> 91.6", "unit": "µM"},
      {"measurement": "TGI", "setting": "MDA-MB-435", "value": "> 100", "unit": "µM"},
      {"measurement": "TGI", "setting": "TK-10 renal", "value": "> 95.7", "unit": "µM"},
      {"measurement": "TGI", "setting": "XF 498 CNS", "value": "> 78.1", "unit": "µM"}
    ]}
  ]
}
